Results from patent US11826402B2, “Combination therapy involving antibodies against claudin 18.2 for treatment of metastatic pancreatic adenocarcinoma” (Astellas Pharma Inc., priority 2013, dated 2023).

Columns and labels:
[1] = system: LVT pancreatic cancer cell lines; test: IMAB362-mediated ADCC assay, LVT pancreatic cancer cell lines and corresponding parental cell lines; assay type: cell-based, human; conditions: for ADCC EC50 / ADCC Max. lysis: at least 2 donors
Description: For ADCC assays pancreatic cancer cell lines were transiently transfected with luciferase RNA. This luciferase RNA (pST1-luc2mut-2 hBgUTR-A121-EciI vector (pST1-109)) was produced with an ARCA cap and dissolved in H2O. RNA was stored in 22 μl aliquots at −80° C. For all pancreas cell lines the optimal electroporation conditions were determined resulting in highest transfection rates and viability of the cells. In each assay cells were detached with PBS/5 mM EDTA and 2.5×10^6 cells dissolved in 250 μl X-Vivo were mixed in ice-cold cuvettes with 10 μg RNA. Cells were immediately electroporated (GenePulser Xcell, Biorad) and resuspended in pre-warmed Assay-medium adjusting the cells to 5×10^5 cells/ml. Tested electroporation conditions were for all cell lines: • EP1: 250 V, 475 μF • EP2: 200 V, 300 μF • EP3: 150 V, 300 μF • EP4: 200 V, 400 μF • EP5: 250 V, 950 μF • Control: 0 V, 0 μF
The viability of the cells was determined directly after electroporation using CASY or by staining cells with Trypan blue and determining the percentage of dead cells in the Neubauer chamber. Cells were seeded in quadruplicates in white 96-well plates (2.5×10^4 cells/well) and incubated for 24 h. Subsequently, luciferase activity was measured in a luminometer (Tecan Infinite200) after addition of luciferin mix for 90 min. Transfection was successful and consequently ADCC measurable, if RLU values >1.000 were obtained.
Pancreatic cancer target cells were seeded two days in advance in flasks to obtain 80-90% confluent cultures on the day ADCC started. […] NUGC-4 sub 10cH11 subE10 Luci #2 cells (8000 cells/well) were seeded in addition as positive controls in all assays. Cells were cultivated for 4-6 h before addition of antibody and purified PBMCs. PBMCs were prepared from fresh human buffy coat obtained from healthy donors. About 3× 20-25 ml blood was diluted (1:2) with PBS and carefully layered on 4×15 ml Ficol-Paque Plus (GE Healthcare) in 50 ml Falcon tubes. Gradients were centrifuged (25 min, 700 g). After centrifugation, peripheral blood mononuclear cells (PBMC) were collected from the interphase, washed in PBS/2 mM EDTA, centrifuged (5 min, 468 g), again resuspended in PBS/2 mM EDTA and centrifuged (10 min, 208 g) to remove the platelets. The pellets were resuspended in 50 ml PBS/2 mM EDTA and cells were counted. PBMCs were centrifuged (5 min, 468 g) and resuspended in X-Vivo-15 culture medium at a concentration of 1.6×10^7 cells/ml for addition to the pancreas cells and 1.28×10^7 cells/ml for addition to the NUGC-4 sub 10cH11 subE10 Luci #2 cells.
Of each dilution 25 μl was added in quadruplicates to the target cells. PBS without antibodies was added in the medium and lysis control wells. Subsequently, 25 μl PBMCs were added to each well (E:T ratio=40:1) and plates were incubated for 24 h±1 h at 37° C., 5% CO2.
The next day, 10 μl 8% Triton X100/PBS solution was added to the lysis control wells and 10 μl PBS in all other wells. Finally, 50 μl freshly prepared luciferin stock solution was added (160 mM HEPES, 1×PBS, 3.84 mg/ml D-Luciferin (BD Biosciences)) to each well and plates were incubated for 80 min at RT in the dark. Luminescence resulting from the oxidation of […] by the luciferase of viable cells was measured using a microplate-reader (Infinite200, Tecan, Switzerland). Percentage of cellular cytotoxicity was calculated using the following formula: Specific killing (%)=100−[(RLUsample−RLUtriton)/(RLUmedium ctrl−RLUtriton)×100]
ADCC analyses were also performed with LVT pancreatic cancer cell lines and their corresponding parental cell lines (FIG. 22B-F).

Suit2-LVT cells = test: FACS binding to Suit2-LVT cells; set-up: species or system human; conditions: 200 μg/ml antibody
Description: Cells were harvested with PBS/5 mM EDTA or Trypsin/EDTA from an exponentially growing culture at 70-85% confluency. Cells were counted, centrifuged for 5 min (468 g) and the pellet was resuspended in FACS buffer (2% FCS, 0.1% sodium azide in PBS) adjusting the concentration to 2×10^6/ml. 100 μl cells were plated in round bottom 96-well plates and again centrifuged (5 min, 468 g). […] Then, 200 μl FACS buffer was added to each well and plates were centrifuged (5 min, 468 g). The supernatant was removed and washing was repeated. Secondary goat anti-human antibodies (FC specific, F(ab′)2 conjugated with APC (Dianova)) were diluted (1:100) in FACS buffer and 30 μl was added to each well. Plates were incubated for 30 min at 4° C. After incubation plates were washed again two times with 200 μl FACS buffer and the pellet was finally resuspended in 100 μl FACS buffer for measurement FACS Array Bioanalyzer (BD) according to GA_018_BD FACS Array bioanalyzer.
In addition to tissue processing, it is possible that the result represents unexpected inhibiting effects of the isotype control antibody targeting CLDN6. To investigate this option, the Suit2-LVT cells were analyzed for CLDN6 expression and IMAB027 binding in FACS.

[2] = system: LVT pancreatic cancer cell lines ectopically expressing CLDN18.2; test: IF staining with IMAB362 under native conditions; assay type: binding, human; conditions: 8 LVT pancreatic cancer cell lines
Excerpt: IF analysis of pancreatic cancer cell lines (FIGS. 16A, 16B, 16D and 16E), lentivirally transduced pancreas cell lines (FIGS. 16G-16L) and KATO-III gastric cancer control cells (FIGS. 16C and 16F) expressing CLDN18.2. […] DAPI was used to stain the nuclei. Exposure times are indicated in each panel. FIG. 16G: BxPC3-LVT; FIG. 16H: CAPAN1-LVT; FIG. 16I: DANG-LVT; FIG. 16J: MiaPaCa2-LVT; FIG. 16K: Patu8902-LVT; FIG. 16L: Suit2-LVT.

Panc03.27 = test: IMAB362-mediated ADCC assay; assay type: cell-based, human; conditions: at least 2 donors

IMAB362: chimeric IgG1 antibody directed against CLDN18.2, developed by Ganymed Pharmaceuticals AG
ADCC EC50 ([1]; BxPC3 (ATCC)): n.m.
ADCC Max. lysis ([1]; BxPC3 (ATCC)): n.m.
ADCC EC50 ([1]; BxPC3 (ECACC)): n.m.
ADCC EC50 ([1]; BxPC3 LVT): 0.0477 ± 0.0191 µg/mL
ADCC Max. lysis ([1]; BxPC3 LVT): 90.6 ± 6.4%
ADCC EC50 ([1]; CAPAN1-LVT): 0.06503 ± 0.0351 µg/mL
ADCC Max. lysis ([1]; CAPAN1-LVT): 92.6 ± 5.5%
ADCC EC50 ([1]; CAPAN1): n.m.
ADCC Max. lysis ([1]; CAPAN1): n.m.
ADCC EC50 ([1]; DANG-LVT): 0.0523 ± 0.0277 µg/mL
ADCC Max. lysis ([1]; DANG-LVT): 85.9 ± 11.7%
ADCC EC50 ([1]; HPAC-LVT): 0.1168 ± 0.1054 µg/mL
ADCC Max. lysis ([1]; HPAC-LVT): 76.2 ± 19.4%
ADCC Max. lysis ([1]; HPAC): 0-22.2%
target dependence of ADCC ([1]; LVT cell lines versus CLDN18.2 negative parental cell lines): only CLDN18.2 positive target cells are killed
ADCC killing ([1]; LVT pancreas CA cell lines): killed upon addition of small amounts of antibody at high rates
ADCC EC50 ([1]; MiaPaCa2-LVT): 0.0234 ± 0.0123 µg/mL
ADCC Max. lysis ([1]; MiaPaCa2-LVT): 78.1 ± 6.0%
ADCC EC50 ([1]; MiaPaCa2): n.m.
ADCC EC50 ([1]; Patu8902-LVT): 0.0492 ± 0.0862 µg/mL
ADCC Max. lysis ([1]; Patu8902-LVT): 74.1 ± 16.4%
ADCC EC50 ([1]; Patu8902): n.m.
ADCC EC50 ([1]; Suit2-LVT): 0.0732 ± 0.0147 µg/mL
ADCC Max. lysis ([1]; Suit2-LVT): 81.2 ± 7.6%
ADCC EC50 ([1]; Suit2): n.m.
ADCC Max. lysis ([1]; Suit2): n.m.
ADCC EC50 ([1]; YAPC-LVT): 0.0295 ± 0.0157 µg/mL
ADCC Max. lysis ([1]; YAPC-LVT): 91.5 ± 6.3%
ADCC EC50 ([1]; YPAC): n.m.
ADCC Max. lysis ([1]; YPAC): n.m.
binding to cells in FACS (Suit2-LVT cells): strong binding
membrane staining (IF, native staining protocol) [2]: clear membrane staining
ADCC EC50 (Panc03.27): n.m.
ADCC Max. lysis (Panc03.27): n.m.
